This note sets out measurements from US20220411439A1, “POLYMORPHS OF A MACROCYCLIC KINASE INHIBITOR” (TURNING POINT THERAPEUTICS, INC., priority 2019, published 2022).

Assay [1] deals with T1, Ba/F3 EML4-ALK (Homo sapiens, UniProt Q9UM73).
T1 construct: fused on or other part: Q9HC35 (Echinoderm microtubule-associated protein-like 4)
In words: Cell proliferation assay (CellTiter-Glo). In kind it is cell-based. The conditions noted are these: anti-cell proliferation, 72 hours. On the procedure:
The EML4-ALK gene (variant 1) was synthesized at GenScript and cloned into pCDH-CMV-MCS-EF1-Puro plasmid (System Biosciences, Inc). Ba/F3-EML4-ALK wild type were generated by transducing Ba/F3 cells with lentivirus containing EML4-ALK wide type. Stable cell lines were selected by puromycin treatment, followed by IL-3 withdrawal. Briefly, 5×10^6 Ba/F3 cells were transduced with lentivirus supernatant in the presence of 8 μg/mL protamine sulfate. The transduced cells were subsequently selected with 1 μg/mL puromycin in the presence of IL3-containing medium RPMI1640, plus 10% FBS. After 10-12 days of selection, the surviving cells were further selected for IL3 independent growth.
(§1) Two thousand cells per well were seeded in 384 well white plate for 24 hrs, and then treated with compounds for 72 hours (37° C., 5% CO2). Cell proliferation was measured using CellTiter-Glo luciferase-based ATP detection assay (Promega) following the manufactures's protocol. IC50 determinations were performed using GraphPad Prism software (GraphPad, Inc., San Diego, Calif.).
(In general: ATP-based viability assays read luminescence as a measure of living cells.)

In assay [2] the test system is TT cell (RET M918T). In words: Cell proliferation assay (CellTiter-Glo). In kind it is cell-based. As to conditions: Homo sapiens, anti-cell proliferation, 72 hours. On the procedure: (§2) Human medulla thyroid carcinoma cell line TT (containing RET M918T mutation) and acute myelogenous cell line KG-1 were purchased from ATCC. Human colon cancer cell line KM12 (containing TPM3-TRKA) was obtained from NCI. Two thousand cells per well were seeded in 384 well white plate for 24 hrs, and then treated with compounds for 72 hours (37° C., 5% CO2). Cell proliferation was measured using CellTiter-Glo luciferase-based ATP detection assay (Promega) following the manufactures's protocol. IC50 determinations were performed using GraphPad Prism software (GraphPad, Inc., San Diego, Calif.).

The subject of assay [3] is KG-1. The assay can be described thus: Cell proliferation assay (CellTiter-Glo). In kind it is cell-based. The conditions noted are these: Homo sapiens, anti-cell proliferation, 72 hours. The procedure: as §2
Assay [4] has as its system KM12 cell (TPM3-TRKA). In words: Cell proliferation assay (CellTiter-Glo). It counts as cell-based. As to conditions: Homo sapiens, anti-cell proliferation, 72 hours. The procedure: as §2
Assay [5] has as its target T2, Ba/F3 KIF5B-RET G810C (Homo sapiens, UniProt P07949, G810C).
T2 construct: KIF5B fragment (fusion partner); expressed in transfected cells; host or cells: Ba/F3 cells, lentiviral transduction (pCDH-CMV-MCS-EF1-Puro); the other entry of the earlier key: KIF5B (P33176, Kinesin-1 heavy chain)
The assay can be described thus: RET-G810C autophosphorylation (Y905) by immunoblotting in Ba/F3 engineered cells. The conditions noted are these: 4 hours incubation, read-out: IC50, RET-G810C phosphorylation at residue Y905. It counts as cell-based.

In assay [6] the target is T3, Ba/F3 KIF5B-RET (Homo sapiens, UniProt P07949, cells depend on it, form not given).
T3 construct: IC50 (nM); other: Experiment 1; other: Experiment 2; fused on or other part: P33176 (Kinesin-1 heavy chain)
In words: Compound I anti-cell proliferation comparison (FIG. 5A, 5B). The conditions noted are these: for GI50: read-out: IC50 (the source's name). It counts as cell-based.
Source text: The KIF5B-RET gene was synthesized at GenScript and cloned into pCDH-CMV-MCS-EF1-Puro plasmid (System Biosciences, Inc). KIF5B-RET point mutation V804M and G810C were generated at GenScript by PCR and confirmed by sequencing. Ba/F3-KIF5B-RET wild type and mutant were generated by transducing Ba/F3 cells with lentivirus containing KIF5B-RET wide type or mutant. Stable cell lines were selected by puromycin treatment, followed by IL-3 withdrawal. Briefly, 5×10^6 Ba/F3 cells were transduced with lentivirus supernatant in the presence of 8 μg/mL protamine sulfate. The transduced cells were subsequently selected with 1 μg/mL puromycin in the presence of IL3-containing medium RPMI1640, plus 10% FBS. After 10-12 days of selection, the surviving cells were further selected for […] independent growth.
as §1

In assay [7] the target is T4, RET (R749T) (Homo sapiens, UniProt P07949, R749T).
T4 construct: purchased Reaction Biology Corporation (contract assay)
The assay can be described thus: Biochemical kinase assay. The conditions noted are these: 10 μM ATP. On the procedure: (§3) The biochemical kinase assay was performed at Reaction Biology Corporation (www.reactionbiology.com, Malvern, Pa.) following the procedures described in the reference (Anastassiadis T, et al Nat Biotechnol. 2011, 29, 1039). Specific kinase/substrate pairs along with required cofactors were prepared in reaction buffer; 20 mM Hepes pH 7.5, 10 mM MgCl2, 1 mM EGTA, 0.02% Brij35, 0.02 mg/ml BSA, 0.1 mM Na3VO4, 2 mM DTT, 1% DMSO. Compounds were delivered into the reaction, followed ˜20 minutes later by addition of a mixture of ATP (Sigma, St. Louis Mo.) and ^33P ATP (Perkin Elmer, Waltham Mass.) to a final concentration of 10 μM. Reactions were carried out at room temperature for 120 min, followed by spotting of the reactions onto P81 ion exchange filter paper (Whatman Inc., Piscataway, N.J.). Unbound phosphate was removed by extensive washing of filters in 0.75% phosphoric acid. […] IC50 values and curve fits were obtained using Prism (GraphPad Software).

The target in assay [8] is T5, RET (S904A) (Homo sapiens, UniProt P07949, S904A).
T5 construct: purchased Reaction Biology Corporation (contract assay)
The assay can be described thus: Biochemical kinase assay. As to conditions: 10 μM ATP. On the procedure:
as §3

Assay [9] concerns the target T6, RET (Y806H) (Homo sapiens, UniProt P07949, Y806H).
T6 construct: purchased Reaction Biology Corporation (contract assay)
In words: Biochemical kinase assay. As to conditions: 10 μM ATP. The procedure: as §3

The target of assay [10] is T7, RET (Y791F) (Homo sapiens, UniProt P07949, Y791F).
T7 construct: purchased Reaction Biology Corporation (contract assay)
In words: Biochemical kinase assay. As to conditions: 10 μM ATP. On the procedure: as §3

For assay [11], the target named is T8, RET (A883F) (Homo sapiens, UniProt P07949, A883F).
T8 construct: purchased Reaction Biology Corporation (contract assay)
In words: Biochemical kinase assay. As to conditions: 10 μM ATP. On the procedure:
as §3

Assay [12] addresses T9, RET (V804E) (Homo sapiens, UniProt P07949, V804E).
T9 construct: purchased Reaction Biology Corporation (contract assay)
The assay can be described thus: Biochemical kinase assay. The conditions noted are these: 10 μM ATP. The procedure:
as §3

In assay [13] the target is T10, RET (S891A) (Homo sapiens, UniProt P07949, S891A).
T10 construct: purchased Reaction Biology Corporation (contract assay)
The assay can be described thus: Biochemical kinase assay. As to conditions: 10 μM ATP. The procedure: as §3

Assay [14] has as its target T11, RET-CCDC6 (PTC1) (Homo sapiens, UniProt P07949).
T11 construct: CCDC6 fragment (fusion partner); purchased Reaction Biology Corporation (contract assay); the other entry of the earlier key: CCDC6 (Q16204, Coiled-coil domain-containing protein 6)
In words: Biochemical kinase assay. The conditions noted are these: 10 μM ATP. On the procedure: as §3

The structures appear in SMILES notation. Like-named read-outs stand apart in the source and are kept apart here.

T3 sequence (P07949 whole entry G810C, form open, the tested form may be a part): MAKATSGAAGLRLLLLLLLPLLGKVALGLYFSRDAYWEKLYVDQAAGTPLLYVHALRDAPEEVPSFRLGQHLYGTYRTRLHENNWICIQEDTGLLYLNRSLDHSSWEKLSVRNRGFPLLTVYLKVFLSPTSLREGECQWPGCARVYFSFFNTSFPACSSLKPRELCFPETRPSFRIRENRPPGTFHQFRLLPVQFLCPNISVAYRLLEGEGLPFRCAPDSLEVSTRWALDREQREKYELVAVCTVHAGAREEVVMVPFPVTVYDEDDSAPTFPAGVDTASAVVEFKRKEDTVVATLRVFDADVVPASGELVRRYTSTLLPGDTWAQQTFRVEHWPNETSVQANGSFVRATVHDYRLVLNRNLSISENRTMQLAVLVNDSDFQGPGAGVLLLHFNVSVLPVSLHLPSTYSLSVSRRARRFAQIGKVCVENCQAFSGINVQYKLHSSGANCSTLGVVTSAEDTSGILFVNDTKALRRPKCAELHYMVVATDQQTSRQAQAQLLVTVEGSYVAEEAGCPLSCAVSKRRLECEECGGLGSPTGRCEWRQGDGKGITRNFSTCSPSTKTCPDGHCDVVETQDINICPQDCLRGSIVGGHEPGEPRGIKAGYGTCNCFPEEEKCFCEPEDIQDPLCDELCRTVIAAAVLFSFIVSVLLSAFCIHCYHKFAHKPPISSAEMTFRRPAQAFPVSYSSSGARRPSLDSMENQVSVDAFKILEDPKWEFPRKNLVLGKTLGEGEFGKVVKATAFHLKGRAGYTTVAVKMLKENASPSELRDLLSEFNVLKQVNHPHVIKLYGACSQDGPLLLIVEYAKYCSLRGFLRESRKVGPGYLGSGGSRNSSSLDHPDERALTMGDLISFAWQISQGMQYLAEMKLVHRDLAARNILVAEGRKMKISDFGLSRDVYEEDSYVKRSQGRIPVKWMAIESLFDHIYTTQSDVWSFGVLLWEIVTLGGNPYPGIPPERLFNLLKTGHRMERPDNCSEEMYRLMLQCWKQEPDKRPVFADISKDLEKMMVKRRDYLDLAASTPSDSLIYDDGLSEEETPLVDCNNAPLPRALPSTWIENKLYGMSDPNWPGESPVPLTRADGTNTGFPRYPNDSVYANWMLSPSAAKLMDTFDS
T8 sequence (P07949 29-1114 A883F): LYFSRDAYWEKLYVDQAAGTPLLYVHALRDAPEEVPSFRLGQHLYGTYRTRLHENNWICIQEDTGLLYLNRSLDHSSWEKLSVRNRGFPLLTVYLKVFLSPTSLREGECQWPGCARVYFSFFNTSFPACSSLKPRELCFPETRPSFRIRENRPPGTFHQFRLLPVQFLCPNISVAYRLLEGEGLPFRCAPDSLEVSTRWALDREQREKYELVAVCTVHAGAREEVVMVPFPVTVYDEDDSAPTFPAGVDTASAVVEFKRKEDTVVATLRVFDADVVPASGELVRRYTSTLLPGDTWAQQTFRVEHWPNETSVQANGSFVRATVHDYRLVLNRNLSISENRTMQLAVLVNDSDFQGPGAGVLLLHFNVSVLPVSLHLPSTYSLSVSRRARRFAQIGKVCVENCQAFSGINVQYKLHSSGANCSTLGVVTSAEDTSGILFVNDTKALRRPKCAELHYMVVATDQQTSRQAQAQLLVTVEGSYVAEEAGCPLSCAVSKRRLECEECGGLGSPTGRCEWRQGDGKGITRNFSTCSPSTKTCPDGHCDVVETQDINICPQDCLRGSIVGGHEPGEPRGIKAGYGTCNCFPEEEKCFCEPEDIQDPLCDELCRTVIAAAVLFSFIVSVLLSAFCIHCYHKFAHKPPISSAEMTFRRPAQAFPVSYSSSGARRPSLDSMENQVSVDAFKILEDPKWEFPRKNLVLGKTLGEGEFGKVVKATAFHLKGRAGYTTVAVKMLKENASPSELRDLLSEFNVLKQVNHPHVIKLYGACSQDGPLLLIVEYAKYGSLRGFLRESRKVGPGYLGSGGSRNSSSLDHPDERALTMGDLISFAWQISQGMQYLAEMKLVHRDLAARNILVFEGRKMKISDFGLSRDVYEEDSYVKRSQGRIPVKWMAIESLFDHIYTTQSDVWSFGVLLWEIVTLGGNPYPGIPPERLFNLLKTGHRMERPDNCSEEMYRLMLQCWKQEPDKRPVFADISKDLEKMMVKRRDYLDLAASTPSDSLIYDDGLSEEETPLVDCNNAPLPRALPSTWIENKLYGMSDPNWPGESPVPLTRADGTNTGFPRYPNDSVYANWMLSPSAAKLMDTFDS
T7 sequence (P07949 29-1114 Y791F): as the sequence (P07949 29-1114 A883F) above, with Y763F, F855A counted along it
T2 sequence (P07949 713-1063 G810C limits assumed): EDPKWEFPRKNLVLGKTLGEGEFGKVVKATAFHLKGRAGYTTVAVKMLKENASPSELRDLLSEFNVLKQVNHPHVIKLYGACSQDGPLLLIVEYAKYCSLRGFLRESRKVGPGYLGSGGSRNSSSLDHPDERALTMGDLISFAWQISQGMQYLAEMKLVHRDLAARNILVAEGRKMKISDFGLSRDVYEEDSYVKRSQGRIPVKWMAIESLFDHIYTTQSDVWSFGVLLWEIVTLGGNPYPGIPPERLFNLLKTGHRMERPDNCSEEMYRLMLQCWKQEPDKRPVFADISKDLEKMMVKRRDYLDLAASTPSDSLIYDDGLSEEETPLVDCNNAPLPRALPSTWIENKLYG
T11 sequence (P07949 with tags, fused parts or gaps): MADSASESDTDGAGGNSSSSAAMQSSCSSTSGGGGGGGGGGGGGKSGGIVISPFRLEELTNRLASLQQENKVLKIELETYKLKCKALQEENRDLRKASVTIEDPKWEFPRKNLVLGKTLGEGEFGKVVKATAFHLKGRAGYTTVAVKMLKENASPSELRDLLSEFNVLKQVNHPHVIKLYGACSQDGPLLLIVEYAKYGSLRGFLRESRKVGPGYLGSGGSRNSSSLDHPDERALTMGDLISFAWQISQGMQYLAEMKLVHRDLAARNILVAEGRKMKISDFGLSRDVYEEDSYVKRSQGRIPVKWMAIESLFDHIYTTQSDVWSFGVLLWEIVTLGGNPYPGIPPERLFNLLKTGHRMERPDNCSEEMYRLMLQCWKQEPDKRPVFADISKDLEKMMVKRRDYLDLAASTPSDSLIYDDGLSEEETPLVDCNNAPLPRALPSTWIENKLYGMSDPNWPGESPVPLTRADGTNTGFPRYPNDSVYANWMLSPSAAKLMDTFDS
T9 sequence (P07949 29-1114 V804E): as the sequence (P07949 29-1114 A883F) above, with V776E, F855A counted along it
T6 sequence (P07949 29-1114 Y806H): as the sequence (P07949 29-1114 A883F) above, with Y778H, F855A counted along it
T4 sequence (P07949 29-1114 R749T): as the sequence (P07949 29-1114 A883F) above, with R721T, F855A counted along it
T5 sequence (P07949 29-1114 S904A): as the sequence (P07949 29-1114 A883F) above, with F855A, S876A counted along it
T10 sequence (P07949 29-1114 S891A): as the sequence (P07949 29-1114 A883F) above, with F855A, S863A counted along it
T1 sequence (Q9UM73 whole entry, change not shown, the tested form may be a part): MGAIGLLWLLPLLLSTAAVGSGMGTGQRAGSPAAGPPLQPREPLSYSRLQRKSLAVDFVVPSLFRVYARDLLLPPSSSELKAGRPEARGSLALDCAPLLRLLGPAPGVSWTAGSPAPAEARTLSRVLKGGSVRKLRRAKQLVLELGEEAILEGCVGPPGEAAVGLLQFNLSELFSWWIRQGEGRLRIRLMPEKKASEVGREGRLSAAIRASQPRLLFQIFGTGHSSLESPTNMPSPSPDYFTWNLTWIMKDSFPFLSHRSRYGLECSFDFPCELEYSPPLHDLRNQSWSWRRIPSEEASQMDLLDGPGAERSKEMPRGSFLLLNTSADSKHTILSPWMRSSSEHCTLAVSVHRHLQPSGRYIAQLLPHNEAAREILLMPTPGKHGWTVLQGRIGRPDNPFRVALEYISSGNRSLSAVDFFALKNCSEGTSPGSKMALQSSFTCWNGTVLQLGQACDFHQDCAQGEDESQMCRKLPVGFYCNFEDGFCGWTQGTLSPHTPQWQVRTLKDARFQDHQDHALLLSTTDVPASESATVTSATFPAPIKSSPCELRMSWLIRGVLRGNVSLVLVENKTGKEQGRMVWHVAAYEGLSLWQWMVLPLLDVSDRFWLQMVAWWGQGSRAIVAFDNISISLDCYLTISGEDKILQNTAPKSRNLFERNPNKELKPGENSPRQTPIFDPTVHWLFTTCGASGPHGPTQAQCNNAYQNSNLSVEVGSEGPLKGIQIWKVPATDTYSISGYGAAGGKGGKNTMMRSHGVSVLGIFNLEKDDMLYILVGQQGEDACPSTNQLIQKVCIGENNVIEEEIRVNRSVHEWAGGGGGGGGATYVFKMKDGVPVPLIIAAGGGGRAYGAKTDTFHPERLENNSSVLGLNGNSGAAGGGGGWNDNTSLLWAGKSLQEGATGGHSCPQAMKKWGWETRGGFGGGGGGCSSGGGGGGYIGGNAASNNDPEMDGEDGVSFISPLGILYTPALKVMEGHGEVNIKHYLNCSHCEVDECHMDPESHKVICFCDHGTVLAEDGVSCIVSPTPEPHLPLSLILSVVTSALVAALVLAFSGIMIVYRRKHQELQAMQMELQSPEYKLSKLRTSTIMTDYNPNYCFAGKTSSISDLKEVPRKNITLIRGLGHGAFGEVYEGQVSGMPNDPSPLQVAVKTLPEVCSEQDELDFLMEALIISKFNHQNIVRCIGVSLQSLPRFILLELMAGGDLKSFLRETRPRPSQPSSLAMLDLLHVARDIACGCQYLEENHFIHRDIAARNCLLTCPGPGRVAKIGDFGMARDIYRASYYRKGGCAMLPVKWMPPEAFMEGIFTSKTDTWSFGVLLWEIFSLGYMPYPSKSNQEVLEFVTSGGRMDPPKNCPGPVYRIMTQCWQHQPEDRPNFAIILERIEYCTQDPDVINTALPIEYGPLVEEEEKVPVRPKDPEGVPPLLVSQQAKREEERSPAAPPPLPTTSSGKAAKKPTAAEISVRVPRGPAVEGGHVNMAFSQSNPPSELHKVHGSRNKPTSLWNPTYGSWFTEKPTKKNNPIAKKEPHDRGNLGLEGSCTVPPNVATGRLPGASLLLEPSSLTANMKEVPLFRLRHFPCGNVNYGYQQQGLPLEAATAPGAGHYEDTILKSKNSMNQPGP

What is called IC50 is the concentration that gives 50% inhibition. For orientation: IC75 means the concentration needed for an effect of 75%. High values mean a need for much substance, low ones an effect from little substance. Usually IC90 stands for the concentration needed for an effect of 90%. A lower IC90 goes with greater potency. With `C[C@H]1CNC(=O)c2cnn3cc4c(nc23)N(Cc2cc(F)cnc2O1)[C@@H]1CCC[C@@H]1O4` [Compound I, (3aR,11S,20aS)-7-fluoro-11-methyl-2,3,3a,12,13,20a-hexahydro-1H,5H-17,19-(metheno)cyclopenta[5,6][1,4]oxazino[3,4-i]pyrazolo[4,3-f]pyrido[3,2-l][1,4,8,10]oxatriazacyclotridecin-14(11H)-one], the GI50 stood at 211 nM in assay [1], 9.6 nM in [6] (Experiment 1) and 13.3 nM in assay [6] (Experiment 2). In addition, the IC50 was less than 0.5 nM in assay [2]; 131 nM in assay [3]; 3 nM in [4]; 1 to 3 nM in assay [5]; 0.8 nM in [7]; 0.9 nM in [8]. The IC50 is 2.6 nM in [9]; 0.4 nM in assay [10]; 1.2 nM in [11]; more than 1000 nM in assay [12]; 0.2 nM in [13]; 0.5 nM in assay [14]. In addition, the “IC75” value in [6] (Experiment 1) is 28.8 nM; in assay [6] (Experiment 2), 39.9 nM. In addition, the IC90 was found to be 86.4 nM in assay [6] (Experiment 1) and 120 nM in assay [6] (Experiment 2).
